# Results: US12385042B2, “Cell-penetrating peptides” (VECTIOPEP OÜ, priority 2019, dated 2025)
# Where a SMILES comes first, the peptide text is derived from it. Bridges are numbered along the chain shown (N, C = ends). Roman numbers before positions name the chains, in order. [ ]: non-standard residue; d: D form. The star is where a group is joined. Arachidoyl = CCCCCCCCCCCCCCCCCCCC(=O)*; Stearoyl = CCCCCCCCCCCCCCCCCC(=O)*; Orn = NCCC[C@H](N)C(=O)O
# Assays:
# CHO cells = test: pDNA (p-CMV-Luc2) transfection with CPP/pDNA complexes; type: cell-based; conditions: serum containing medium, CR1 to CR4, 24 h
# Protocol: For the pDNA transfection experiment, CPP/pDNA nanoparticles were prepared by mixing […] of plasmid (p-CMV-Luc2) with the peptide in MQ water. Charge ratios from 1 to 4 (CR, equivalent to the nitrogen-to-phosphate ratio) were used. 50,000 CHO cells were seeded 24 hr before the experiment into 24-well plates, treated with complexes for 4 h in serum-containing medium, incubated for additional 20 hr, lysed and luminescence was measured.
# [1] = system: CHO stably expressing green fluorescent protein (GFP); test: GFP gene downregulation by CPP/siGFP complexes (lysate fluorescence, FACS, confocal); type: cell-based; conditions: for GFP signal in confocal images: live cells treated with CPP/siGFP complexes
# Protocol: For assessing the siRNA mediated RNAi, CHO-GFP or U87-luc2 cells (5×10^5 cells per well) were seeded on a 24-well plate a day prior to the experiment and grown in serum containing media. On experiment day, prior to adding pre-formed complexes ( 1/10th of the final volume per well), media was replaced with fresh serum containing medium.
# For complex formation, peptide was mixed with luc2 siRNA (sense 5′-[…]-3′ (SEQ ID NO:7), antisense 5′-[…] 3′ (SEQ ID NO:8), Metabion, Germany) or with siRNA against GFP (5′-[…] (SEQ ID NO:9), 3′-[…] (SEQ ID NO:10)) in mQ water (pH 5.3-6.3) using peptide to siRNA molar ratios (MR is the ratio of peptide to siRNA) […] and incubated at RT for 1 h. For siLuc2, the final concentration in media was 25 nM and for siGFP 100 nM. Cells were co-incubated with complexes for 4 h (37° C., 5% CO2), thereafter fresh serum containing media was added and followed by further incubation (20 h for siLuc2 or 44 h for siGFP complexes). Luciferase gene downregulation was measured from cell lysates with Promega luciferase assay system (Promega, Sweden) in combination with GLOMAX 96 microplate luminometer equipped with GLOMAX 1.9.2 software (Promega). GFP was measured after treatment from cell lysates on black 96-well plates by measuring total fluorescence (Symergy MX, BioTek Instruments, USA equipped with Gen5 1.10 software). The results were normalized to the protein content of each sample (DC Protein Assay, BioRad, USA).
# For flow cytometry analysis (FACS) analysis CHO-GFP cells were seeded and treated as described previously. After incubation, cells were washed with 1× PBS and detached from plates with trypsin-EDTA (0.25%), and re-suspended in PBS supplemented with FBS (5%) and transferred to transparent U-bottom 96-well plates. FACS was carried out with BD LSR II flow cytometer (BD Biosciences, San Jose, CA, USA) equipped with a 488 nm argon laser. Population of viable cells was determined from scatter plot: forward scattered plot (FSC) vs. side scattered light (SSC) plot. A minimum of 10,000 events from the viable cell population per sample were analyzed using BD FACS Diva software. Results are shown as the population with GFP signal lower than that of 0.1% of untreated cells.
# For confocal microscopy 2×10^5 cells per chamber were seeded on NUNC 8-chamber plates. After treatment with complexes (25 ul of pre-formed CPP/siRNA complexes added to cells in 225 ul serum containing media), incubated (48 h) and GFP florescence images of cells were captured using confocal microscope Zeiss LSM 710 and excitation at 488 nm (493-616 filter).
# [2] = system: subcutaneous U87MG tumor xenograft; test: Biodistribution of CPP/Cy5-siRNA nanoparticles, U87 tumor; type: in vivo, mouse; conditions: peak at 3 h
# Protocol: Human tumor xenografts (subcutaneous U87MG and HT-1080) were induced in mice (Hsd: Athymic Nude-Foxn1nu female, 2.5 month old, Harlan, UK). The xenografting was performed by implanting the cell suspension (1×10^6 cells in 100 ul volume of ice-cold DMEM without any supplements) subcutaneously to the flank.
# At the appearance of tumor size of approx. 100 mm^3, mice were injected i.v. (via tail vein) with the CPP/siRNA complexes. Each animal received a single 200 ul i.v. injection of 20 ug Cy5-siRNA, formulated with CPPs at MR20 or MR40. As a control, 20 μg of un-complexed Cy5-labeled siRNA was administered. The biodistribution of Cy5-siRNA and CPP/Cy5-siRNA complexes was evaluated at different time points −0.5 h up to 6 h. For that, mice (n=2 in each treatment group) were imaged in vivo using IVIS Lumina II (CaliperLS, USA). Cy-5 fluorescence intensity values were acquired from the tumor region.
# [3] = system: murine blood coagulation factor VII mRNA; test: Gene downregulation in vivo (siFVII, mouse liver, qRT-PCR)
# Protocol: For the gene downregulation studies male Balb/c, 2-4 month-old mice were used, with 2-5 mice per group. The CPP/siRNA complexes were formed at MR30 and for each mouse 1.6 mg/kg siRNA dose was used. Particle formulations were administered intravenously via tail vein injection, at 1.6 mg/kg siRNA dose. 48 h post treatment, liver tissues were harvested and snap-frozen for analyses. The tissues were homogenized using Precellys®24-Dual homogenization system (Bertin Technologies, France) with TRIzol reagent (Thermo Fisher Scientific). RNA was extracted according to TRIzol manufacturers protocol with slight modifications. RNA quality and concentration was assessed on 1.8% agarose gel and NanoDrop2000. From RNA complementary DNA was synthesized using SuperScript IV Reverse Transcriptase (Thermo Fisher Scientific) according to manufacturer's protocol. The synthesized cDNA was used for qPCR accompanied with 5× HOT FIREPol EvaGreen qPCR Supermix (Solis Biodyne, Estonia) according to manufacturer's protocol. The obtained data was analyzed using 2-ΔΔCT method and normalized to untreated mouse group (100%). siRNA against blood coagulation factor VII (siFVII) sense 5′-gga (2′F-U) (2′F-C) a (2′F-U) (2′F-C) (2′F-U) (2′F-C) aag (2′F-U) (2′F-C) (2′F-U) (2′F-U) a (2′F-C) T*T-3″ and antisense 5′-g (2′F-U) aaga (2′F-C) (2′F-U) (2′F-U) gaga (2′F-U) ga (2′F-U) (2′F-C) (2′F-C) T*T 3′. Primers for PCR (Mus blood coagulation factor VII) forward […] (SEQ ID NO:11), reverse: […] (SEQ ID NO:12) and (Mus Actin beta) forward: […] (SEQ ID NO: 13) and reverse: […] (SEQ ID NO:14). The siRNA and primers were synthesized by the same manufacturer (Metabion, Germany). Data was collected with ViiA 7 RT_PCR system and analysis based on […] and normalized to results from untreated mice.
# As a control hydrodynamic injection of 600 ul of siRNA was used and untreated mice were included. All animal experiments and procedures were approved by the Estonian Laboratory Animal Ethics Committee (approvals no 81, dated Apr. 4, 2016, and 69 and 70, dated Feb. 9, 2011).
Structure (SMILES),pDNA delivery / gene expression in vitro (in words) (CHO cells),GFP signal in confocal images [1],"downregulation of GFP (average, cell lysate fluorescence) ([1]; siGFP 100 nM)",peak accumulation in U87 tumor relative to naked Cy5-siRNA [2] [fold],"RNA levels preserved compared to untreated mice ([3]; 1.6 mg/kg siFVII, 48 h, liver)",downregulation compared to siRNA treated group ([3]; 1.6 mg/kg siRNA) [%],downregulation compared to free siRNA and In vivo JetPEI at N/P6 ([3]; same 1.6 mg/kg dose),"downregulation of the target (FVII) in mouse liver ([3]; single i.v. injection, 1.6 mg/kg siRNA, MR30, 48 h, vs untreated mice) [%]"
CCCCCCCCCCCCCCCCCC(=O)N[C@@H](Cc1c[nH]cn1)C(=O)N[C@@H](Cc1c[nH]cn1)C(=O)N[C@@H](Cc1ccc(O)cc1)C(=O)N[C@@H](Cc1c[nH]cn1)C(=O)N[C@@H](Cc1c[nH]cn1)C(=O)NCC(=O)NCCC[C@H](N)C(=O)N[C@H](C(=O)N[C@@H](CC(C)C)C(=O)N[C@@H](CC(C)C)C(=O)N[C@@H](CCCCN)C(=O)N[C@@H](C)C(=O)N[C@@H](CC(C)C)C(=O)N[C@@H](CCCCN)C(=O)N[C@@H](C)C(=O)N[C@@H](CC(C)C)C(=O)N[C@@H](C)C(=O)N[C@@H](CCCCN)C(=O)N[C@@H](C)C(=O)N[C@H](C(=O)N[C@@H](CC(C)C)C(N)=O)[C@@H](C)CC)[C@@H](C)CC [NF71] (I: H-[Orn]ILLKALKALAKAIL-NH2 / II: Stearoyl-HHYHHG; amide I:1-II:C),promising vectors for pDNA transfection,detected GFP signal was the lowest,lower than with H6^1-C20 or H8-C20,27,,,,
CCCCCCCCCCCCCCCCCCCC(=O)N[C@@H](Cc1c[nH]cn1)C(=O)N[C@@H](Cc1c[nH]cn1)C(=O)N[C@@H](Cc1c[nH]cn1)C(=O)N[C@@H](Cc1c[nH]cn1)C(=O)N[C@@H](Cc1ccc(O)cc1)C(=O)N[C@@H](Cc1c[nH]cn1)C(=O)N[C@@H](Cc1c[nH]cn1)C(=O)NCC(=O)NCCC[C@H](N)C(=O)N[C@H](C(=O)N[C@@H](CC(C)C)C(=O)N[C@@H](CC(C)C)C(=O)N[C@@H](CCCCN)C(=O)N[C@@H](C)C(=O)N[C@@H](CC(C)C)C(=O)N[C@@H](CCCCN)C(=O)N[C@@H](C)C(=O)N[C@@H](CC(C)C)C(=O)N[C@@H](C)C(=O)N[C@@H](CCCCN)C(=O)N[C@@H](C)C(=O)N[C@H](C(=O)N[C@@H](CC(C)C)C(N)=O)[C@@H](C)CC)[C@@H](C)CC [NF70] (I: H-[Orn]ILLKALKALAKAIL-NH2 / II: Arachidoyl-HHHHYHHG; amide I:1-II:C),,detected GFP signal was the lowest,,,approximately 40%,30,higher downregulation effect,~60
